Source: article PMC9386806 (ACS Omega, 2022)

Biological target: hCA II (Homo sapiens, UniProt P00918)
Experiment: biochemical

Compared with `COC(=O)C1=C(N)Oc2c(c(=O)oc3ccc(C)cc23)C1c1ccccc1OCc1cc2ccccc2oc1=O` (stereo not shown) [Compound 12e, 2-Amino-9-methyl-5-oxo-4-[2-(2-oxo-2H-chromen-3-ylmethoxy)-phenyl]-4H,5H-pyrano[3,2-c]chromene-3-carboxylic Acid Methyl Ester], `COC(=O)C1=C(N)Oc2c(c(=O)oc3cc(O)ccc23)C1c1ccccc1OCc1cc2ccccc2oc1=O` (stereo not shown) [Compound 12i, 2-Amino-8-hydroxy-5-oxo-4-[2-(2-oxo-2H-chromen-3-ylmethoxy)-phenyl]-4H,5H-pyrano[3,2-c]chromene-3-carboxylic Acid Methyl Ester] is 4.4-fold lower in IC50: 21.8 ± 3.32 µM for the first, 4.91 ± 1.13 µM for the second.

First: CCOC(=O)C1=C(N)Oc2c(c(=O)oc3cc(O)ccc23)C1c1ccccc1OCc1cc2ccccc2oc1=O (stereo not shown) [Compound 12j, 2-Amino-8-hydroxy-5-oxo-4-[2-(2-oxo-2H-chromen-3-ylmethoxy)-phenyl]-4H,5H-pyrano[3,2-c]chromene-3-carboxylic Acid Ethyl Ester]
Second: N#CC1=C(N)Oc2c(c(=O)oc3cc(O)ccc23)C1c1ccccc1OCc1cc2ccccc2oc1=O (stereo not shown) [Compound 12h, 2-Amino-8-hydroxy-5-oxo-4-[2-(2-oxo-2H-chromen-3-ylmethoxy)-phenyl]-4H,5H-pyrano[3,2-c]chromene-3-carbonitrile]
The IC50 of the first is 1.7-fold higher: 7.78 ± 0.08 µM for the first, 4.55 ± 0.22 µM for the second. The second is the more potent here.
